The source of these data is ChEMBL document CHEMBL4007423, “Discovery of quinone-directed antitumor agents selectively bioactivated by NQO1 over CPR with improved safety profile” (Eur J Med Chem, 2017).

One data set is filed under the species Homo sapiens. Nature of the data set: Selectivity ratio of compound reduction rate catalyzed by recombinant human NQO1 expressed in Escherichia coli to compound reduction rate catalyzed by recombinant human CPR expressed in baculovirus infected insect cells.
Data set [1] has as its target T1, NADPH--cytochrome P450 reductase (Homo sapiens, UniProt P16435).
T1 sequence (P16435 whole entry): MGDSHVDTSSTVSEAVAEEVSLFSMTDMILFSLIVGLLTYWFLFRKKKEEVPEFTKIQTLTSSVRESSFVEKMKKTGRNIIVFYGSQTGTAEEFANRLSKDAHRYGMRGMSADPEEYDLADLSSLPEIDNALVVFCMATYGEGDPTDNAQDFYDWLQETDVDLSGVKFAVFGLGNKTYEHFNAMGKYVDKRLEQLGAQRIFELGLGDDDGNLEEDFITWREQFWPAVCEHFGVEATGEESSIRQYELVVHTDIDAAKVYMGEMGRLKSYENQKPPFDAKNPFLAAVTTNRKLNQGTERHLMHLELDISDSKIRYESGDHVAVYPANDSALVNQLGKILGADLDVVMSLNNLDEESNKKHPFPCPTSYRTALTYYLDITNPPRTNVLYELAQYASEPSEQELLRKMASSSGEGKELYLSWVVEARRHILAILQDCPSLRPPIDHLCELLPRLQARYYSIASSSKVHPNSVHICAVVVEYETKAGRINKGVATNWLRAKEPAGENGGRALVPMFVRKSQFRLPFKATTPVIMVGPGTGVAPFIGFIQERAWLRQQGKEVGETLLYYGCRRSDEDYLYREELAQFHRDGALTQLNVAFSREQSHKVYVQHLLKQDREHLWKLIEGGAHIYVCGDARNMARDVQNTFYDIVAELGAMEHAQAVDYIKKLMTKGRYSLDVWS
As to the kind of experiment: Substrate activity at recombinant human CPR expressed in baculovirus infected insect cells assessed as compound reduction rate by measuring NADPH consumption per umol of enzyme preincubated for 3 mins followed by NADPH addition measured for 5 mins at 2 sec time interval by UV-Visible spectroscopic method. Type of data set: ADME.

Data set [2] can be described thus: Electrochemical behavior of the compound assessed as electrochemical redox potential with reference to ferrocene at 1 mM using Ag/AgCl reference electrode measured up to -2 V at potential sweep rates of 50 mV/s by cyclic voltammetry.
The test system of data set [3] is A549. Nature of the data set: Antitumor activity against human A549 cells xenografted in athymic nude mouse assessed as tumor growth inhibition at 30 mg/kg, iv administered every other day for 3 weeks measured twice per week during compound dosing relative to control. Particulars: 504 h, read-out: TGI. Type of data set: functional. On the technique in general: In xenograft studies the graft and the host belong to different species.

In data set [4] the test system is Mus musculus. As to the kind of experiment: Toxicity in athymic nude mouse xenografted with human A549 cells assessed as change in body weight at 30 mg/kg, iv administered every other day for 3 weeks measured twice per week during compound dosing. Type of data set: organism-based. Particulars: in vivo, 504 h.
Data set [5] relates to Mus musculus. Nature of the data set: Toxicity in athymic nude mouse xenografted with human A549 cells assessed as change in body weight at 15 to 30 mg/kg, iv administered every other day for 3 weeks measured twice per week during compound dosing. The data set is classed as organism-based. Particulars: in vivo, 504 h.
Another data set has as its system NCI-H596. Nature of the data set: Cytotoxicity against NQO1-deficient human NCI-H596 cells assessed as cell growth inhibition treated for 24 hrs measured after 72 hrs by MTT assay. The data set is classed as functional, cell-based.
In data set [6] the test system is A549. As to the kind of experiment: Cytotoxicity against NQO1 inhibitor dicoumarol pretreated human A549 cells assessed as cell growth inhibition treated for 24 hrs measured after 72 hrs by MTT assay. Type of data set: functional, cell-based.
Data set [7] in a line: Selectivity ratio of IC50 for substrate activity at CPR in human L02 cells assessed as cell growth inhibition to IC50 for substrate activity at NQO1 in human A549 cells assessed as cell growth inhibition.
Data set [8] concerns A549. As to the kind of experiment: Antitumor activity against human A549 cells xenografted in athymic nude mouse assessed as tumor growth inhibition at 15 mg/kg, iv administered every other day for 3 weeks measured twice per week during compound dosing. The data set is classed as functional, organism-based.
Data set [9] has as its target T1, NADPH--cytochrome P450 reductase. Nature of the data set: Substrate activity at CPR in human L02 cells assessed as CPR-mediated one-electron reduction of compound by measuring cell growth inhibition at 20 to 100 uM treated for >8 hrs measured after 72 hrs by MTT assay. The data set is classed as cell-based. On the technique in general: Tetrazolium assays rely on reduction of a dye to a coloured formazan, in cell work by metabolically active cells.

The structures appear in SMILES notation. Calls of active or inactive are those of the source. No cut-off for these calls is given here.

For `CCc1coc2c1C(=O)C(=O)c1ccc(C)cc1-2`, the Selectivity ratio in the data set filed under Homo sapiens worked out at 1.17. In addition, the Activity in [1] is 1014 µmol/min.

Regarding `COc1ccc2c(c1)C(=O)C(=O)C1=C2OC(C)C1(C)C` (configuration not stated), the Activity in data set [2] was -1.09 V; in [1] it was 782 µmol/min.

With `CCc1coc2c1C(=O)C(=O)c1cc(C)c(C)cc1-2`, the Activity in data set [1] stood at 818 µmol/min.

Usually IC50 stands for the concentration at which inhibition is half-maximal. For the compound `Cc1cc2c(cc1C)-c1occ(C)c1C(=O)C2=O`, the Activity in data set [2] is -1.09 V; in the data set on Mus musculus [4], “Non-Toxic”; in the data set on Mus musculus [5] it was “Non-Toxic”; in [1], 142 µmol/min. Besides, in the data set on A549 [3], the inhibition in vivo at 30 mg/kg was determined as 67.5%. Besides, the IC50 in the data set on NCI-H596 turned out to be 35 µM; in the data set on A549 [6] it was 21 µM. Also, the “Ratio IC50” value in data set [7] worked out at 10.6. In addition, the TGI entry in the data set on A549 [8] is “Active”.

Take `CC1(C)CCC2=C(O1)c1ccccc1C(=O)C2=O` [LAPACHONE]: the Activity was -1.02 V in [2] and 923 µmol/min in data set [1]. Further, the inhibition in vivo at 30 mg/kg in the data set on A549 [3] was 70.7%. Besides, the “growth inhibition (GI)” value in data set [9] is on record as “Active”.

Take `Cc1ccc2c(c1)-c1occ(C)c1C(=O)C2=O`: the Activity in data set [2] was -1.05 V; in data set [1], 835 µmol/min. For the same compound, in the data set filed under Homo sapiens, the Selectivity ratio was 1.25. Besides, the “Ratio IC50” value in [7] worked out at 1.54.

Consider `COc1cccc2c1C1=C(C(=O)C2=O)C(C)(C)C(C)O1` (configuration not stated), for which the results for the Activity in data set [2] and in data set [1] were -1.1 V and 764 µmol/min, respectively.

For the compound `Cc1cc(=O)n(C)c2c1C(=O)C1=C(C=CC(C)(C)O1)C2=O`, the Activity in [2] was -0.9 V; in data set [1], 1422 µmol/min. In addition, the Selectivity ratio in the data set listed under Homo sapiens was 0.81.

`Cc1cc2c(cc1C)-c1occc1C(=O)C2=O`: the Activity in data set [1] turned out to be 400 µmol/min.

`CCc1coc2c1C(=O)C(=O)c1ccccc1-2`: the Selectivity ratio in the data set listed under Homo sapiens was found to be 0.54. For the same compound, in data set [1], the Activity came to 1382 µmol/min.

On to `CC1CC2=C(O1)c1ccccc1C(=O)C2=O` (configuration not stated), for which the Selectivity ratio in the data set listed under Homo sapiens amounted to 0.71. In data set [1], the Activity turned out to be 905 µmol/min.

With `CC1(C)CC2=C(O1)c1ccccc1C(=O)C2=O` [NOR-BETA-LAPACHONE], in the data set listed under Homo sapiens, the Selectivity ratio stood at 0.52. Besides, the Activity in data set [1] turned out to be 1427 µmol/min.

As to `CC1(C)CCC2=C(O1)C(=O)c1ccccc1C2=O` [ALPHA-LAPACHONE], the Activity is -1.22 V in [2] and 1010 µmol/min in [1]. In the data set listed under Homo sapiens, the Selectivity ratio is 0.72.

As for `CCc1coc2c1C(=O)C(=O)c1cc(C)ccc1-2`, the Selectivity ratio in the data set filed under Homo sapiens is 1.63. Moreover, the “Ratio IC50” value in data set [7] turned out to be 8.06. Also, the Activity in data set [1] was 796 µmol/min.

Turning to `CC1(C)C=CC2=C(O1)C(=O)c1ccccc1C2=O` [DEHYDRO-ALPHA-LAPACHONE], the Activity in data set [2] is -1.22 V; in data set [1], 852 µmol/min. The Selectivity ratio in the data set listed under Homo sapiens came out at 0.91.

Consider `Cc1ccc2c(c1)C(=O)C(=O)c1c(C)coc1-2`, for which the Activity in [2] is -1.04 V; in data set [1], 891 µmol/min. Further, the Selectivity ratio in the data set listed under Homo sapiens turned out to be 1.82. For the same compound, in data set [7], the “Ratio IC50” value amounted to 2.59.

On to `CC1OC2=C(C(=O)C(=O)c3ccccc32)C1(C)C` (configuration not stated), for which the Activity in data set [2] was -1.01 V; in [1] it was 1437 µmol/min. Besides, the Selectivity ratio in the data set filed under Homo sapiens was determined as 0.7.

Take `COc1ccc2c(c1)C1=C(C(=O)C2=O)C(C)(C)C(C)O1` (configuration not stated): the Activity is -1.13 V in data set [2] and 812 µmol/min in [1].

Take `Cc1coc2c1C(=O)C(=O)c1c(C)ccc(C)c1-2`: the values for the Activity in [2] and in data set [1] were -1.07 V and 672 µmol/min, respectively. In addition, the Selectivity ratio in the data set listed under Homo sapiens was 1.38. Also, in data set [7], the “Ratio IC50” value is listed as 5.86.

Turning to `O=C1C(=O)c2ccoc2-c2ccccc21`, the Activity in data set [2] is -0.98 V; in data set [1], 1221 µmol/min. The Selectivity ratio in the data set listed under Homo sapiens is 1.18.

Turning to `Cc1coc2c1C(=O)C(=O)c1ccccc1-2`, the Activity in data set [2] is -1.03 V; in data set [1] it was 1201 µmol/min. For the same compound, in the data set listed under Homo sapiens, the Selectivity ratio is 0.63.

On to `CC1OC2=C(C(=O)C(=O)c3ccccc32)C1C` (configuration not stated), for which the Selectivity ratio in the data set listed under Homo sapiens turned out to be 1.1. Besides, the Activity in data set [1] was found to be 659 µmol/min.

With `CC1OC2=C(C(=O)c3ccccc3C2=O)C1(C)C` (stereo not drawn) [ALPHA-DUNNIONE], the results for the Activity in data set [2] and in data set [1] were -1.19 V and 1011 µmol/min, respectively. For the same compound, in the data set filed under Homo sapiens, the Selectivity ratio was 0.72.
